Laboratory results published in patent publication US12550898B2, “Herbicide combinations comprising glufosinate and carfentrazone-ethyl” (BASF SE, priority 2020, dated 2026).

Tests used:
Chenopodium album = test: Greenhouse post-emergence herbicidal activity on Chenopodium album; type: in vivo; conditions: 0.654 g ai/ha
Source text: (§1) For the post-emergence treatment, the test plants were first grown to 3 to 4 inch (7.6 to 10.2 cm) tall, and only then treated. Here, the herbicidal compositions were suspended or emulsified in water as distribution medium and sprayed using finely distributing nozzles.
(§2) The herbicide compounds applied in the examples were used as commercially available formulations which have been diluted with deionized water to a suitable concentration.
(§3) Carfentrazone (commercial product name: Aim) was used as an emulsifiable concentrate having an active ingredient concentration of 240 g/l. Glufosinate (commercial product name: Liberty) was used as an aqueous soluble liquid of glufosinate ammonium having an active ingredient concentration of 280 g/l. Adjuvants of ammonium sulfate (AMS) and non-ionic surfactant (NIS) were added in all treatments. AMS and NIS were AMS Liquid and Induce at rates of 1680 g/ha and 0.25% (v/v), respectively.
(§4) The test period extended over 28 days after treatment (DAT). During this time, the plants were tended and their response to the individual treatments was evaluated.
(§5) The evaluation for the damage caused by the chemical compositions was carried out using a scale from 0 to 100%, compared to the untreated control plants. Here, 0 means no damage and 100 means complete destruction of the plants.
(§6) The plants used in the greenhouse experiments belonged to the following species:
(§7) 22 ff. E=X+Y−(X·Y/100) • where X=effect in percent using carfentrazone at an application rate a; • Y=effect in percent using glufosinate at application rate b; • E=expected effect (in %) of carfentrazone plus glufosinate at application rates a+b.
(§8) The value E corresponds to the effect (plant damage or injury) which is to be expected if the activity of the individual compounds is just additive. If the observed effect is higher than the value E calculated according to Colby, a synergistic effect is present.

Echinochloa crus-galli = test: Greenhouse post-emergence herbicidal activity on Echinochloa crus-galli; type: in vivo; conditions: 0.654 g ai/ha, scale 0-100, AMS + NIS added
Source text: as §1, §2, §3, §4, §5, §6, §7, §8

With CCOC(=O)C(Cl)Cc1cc(-n2nc(C)n(C(F)F)c2=O)c(F)cc1Cl (stereo not drawn) [Carfentrazone, carfentrazone-ethyl] the “Solo Carfentrazone % activity” value (Chenopodium album; 7 DAT, scale 0 (no damage) to 100 (complete destruction), AMS + NIS added) was 30%, the “Solo Carfentrazone % activity” value (Chenopodium album; 14 DAT, scale 0-100, AMS + NIS added) was 30% and the “Solo Carfentrazone % activity” value (Chenopodium album; 21 DAT, scale 0-100, AMS + NIS added) was 35%. For the same molecule, the “Solo Carfentrazone % activity” value (Echinochloa crus-galli; 7 DAT) was 30%, the “Solo Carfentrazone % activity” value (Echinochloa crus-galli; 14 DAT) was 18% and the “Solo Carfentrazone % activity” value (Echinochloa crus-galli; 21 DAT) was 25%.
